Assay: Fecal excretion of 4-HPR and metabolites
Format: in vivo, mice
Parameters: Fecal excretion, amount: unit not given here
Protocol: The oral pharmacokinetics of Bio-nFeR were investigated in four independent groups of 24 mice, randomized to receive different treatment with the following fenretinide equivalent doses: 10, 50, 100 and 200 mg/Kg. The drug was administered by oral gavage and after treatment, blood samples were taken at 15 and 30 min and at 1, 2, 4, 8/10, 24 and 48 h and collected in heparinized tubes from the retro-orbital plexus of the mice under isoflurane anesthesia. Mice were then sacrificed by cervical dislocation and liver, kidney and brain were removed and immediately frozen in dry-ice for future determination. To obtain plasma, blood was centrifuged at 4000 rpm for 10 min at 4 °C. To evaluate fenretinide and metabolites excretion, urine and faeces were collected over a 0–24 h and 24–48 h periods. The collection was performed in three mice per group of treatment, individually housed into metabolic cages for urine and faeces collection. All the biological samples were stored at − 20 °C until analysis. To compare the absorption of Bio-nFeR to NCI-FeR and to study the bioavailability, another independent groups of 24 mice were randomized to receive an oral dose of 200 mg/Kg of NCI-FeR. Blood samples were taken at the time reported above. Twenty-four hours fractions of urine and faeces were collected in three mice per group of treatment. Plasma and the other biological specimens were stored at − 20 °C until analysis. Chronic study: the oral pharmacokinetic of Bio-nFeR in comparison with NCI-FeR were also investigated after chronic administrations. Mice were divided in three independent groups, randomized to receive a single treatment of 150 mg/Kg or different repeated treatments of 150 mg/Kg, daily for 2 weeks (12 days on and 2 days off), or 100 mg/Kg bi-daily for 1 week (5 days on 2 days off). Bio-nFeR and NCI-FeR were administered by oral gavage, collecting blood samples at 0.5, 1, 2, 4, 8/10 and 24 h, the day of the single treatment and at 0, 1, 2, 4, 8/10, 24 and 48 h after the last dose of both the chronic treatments. The procedures of blood collection, plasma preparation, sacrifice of mice and storing of samples were as reported in acute study. Also during chronic treatment, excretions of fenretinide and metabolites in urine and faeces were determined collecting the specimens in three mice per group, both at the start of treatment and at the end of the repeated administration. All the collected samples were stored at − 20 °C until analysis.
The determination of fenretinide in plasma of mice and the others biological samples was determined according to a method specifically developed and validated for the quantification of fenretinide (4-HPR) based on liquid chromatography-tandem mass spectrometry (LC–MS/MS) (manuscript in preparation). The procedure of sample preparation and quantification can be summarized as follows. 30 μL aliquot of plasma was added with 3 ng of deuterated internal standard (^2H4 4-HPR), deproteinized by mean of 90 μL of acetonitrile and centrifuged 5 min at 13200 rpm at room temperature. The supernatant was recovered and 5 μL injected into a HPLC system (Series 200, Perkin Elmer, MA, USA). Chromatographic separation was achieved on a Gemini-C18 column (50 mm × 2.0 mm, 5 μm particle size; Phenomenex Inc., Torrance, CA, USA) at 32 °C protected with a Security Guard™ ULTRA cartridges C18. The detection obtained by Mass spectrometric detection was carried out on a triple quadrupole API 4000 mass spectrometer (Sciex, MA, USA) equipped with atmospheric pressure chemical ionization source (APCI) operating in positive ion mode monitoring the transitions 392.3 > 283.2 m/z for 4-HPR and 396.3 > 283.2 m/z for the deuterated internal standard. To assay study samples, a calibration curve of six points (range: 1.0–500.00 ng/mL) was prepared in control mouse plasma assessing the precision and the accuracy of the run analyzing at the same time a set of freshly prepared quality controls samples. […]

[1] = 2 wks 1 daily dose 150 mg/kg Bio-nFeR
[2] = 2 wks 1 daily dose 150 mg/kg NCI-FeR
[3] = feces after 24 hours, acute Bio-nFeR 10 mg/kg
[4] = feces after 24 hours, acute Bio-nFeR 50 mg/kg
[5] = feces after 24 hours, acute Bio-nFeR 100 mg/kg
[6] = feces after 24 hours, acute Bio-nFeR 200 mg/kg
[7] = feces after 24 hours, acute NCI-FeR 200 mg/kg
[8] = single admin. 150 mg/kg Bio-nFeR
[9] = single admin. 150 mg/kg NCI-FeR

Structure (SMILES)	Fecal excretion, amount [1]	Fecal excretion, percent (in brackets) [1]	Fecal excretion, amount [2]	Fecal excretion, percent (in brackets) [2]	Fecal excretion, amount [3]	Fecal excretion, percent (in brackets) [3]	Fecal excretion, amount [4]	Fecal excretion, percent (in brackets) [4]	Fecal excretion, amount [5]	Fecal excretion, percent (in brackets) [5]	Fecal excretion, amount [6]	Fecal excretion, percent (in brackets) [6]	Fecal excretion, amount [7]	Fecal excretion, percent (in brackets) [7]	Fecal excretion, amount [8]	Fecal excretion, percent (in brackets) [8]	Fecal excretion, amount [9]	Fecal excretion, percent (in brackets) [9]	proportion of Bio-nFeR and NCI-FeR eliminated in faeces (acute treatment at multiple doses and chronic treatment)
CC1=C(/C=C/C(C)=C/C=C/C(C)=C/C(=O)Nc2ccc(O)cc2)C(C)(C)CCC1=O [4-oxo-4-HPR]	97.5	4.2%	201.1	6.6%	47	32.6%	253.8	26.5%	85.5	4.9%	129.8	4.3%	115.6	3.9%	108.4	5.0%	103.7	4.2%	
COc1ccc(NC(=O)\C=C(C)/C=C/C=C(C)\C=C\C2=C(C)CCCC2(C)C)cc1 [MPR]	0.9	0.0%	0.8	0.0%	0.03	0.02%	0.5	0.05%	0.7	0.04%	1.2	0.05%	0.4	0.02%	1.6	0.1%	0.4	0.02%	less than 0.1%
CC1=C(/C=C/C(C)=C/C=C/C(C)=C/C(=O)Nc2ccc(O)cc2)C(C)(C)CCC1 [4-HPR, 4-hydroxy (phenyl)retinamide, reference compound]	97.4	4.2%	270	7.6%	4.7	3.2%	38.2	4.0%	33.6	1.9%	77.4	2.5%	153.4	5.5%	129.5	6.1%	247.1	9.2%	
